Values quoted from earlier work in US20170369926A1, “NEW MARKERS FOR EARLY DIAGNOSIS OF OVARIAN CANCER, MONITORING DURING THERAPY, AND NEW THERAPY OPTIONS DURING AND AFTER CHEMOTHERAPY” (Bioventures, LLC, priority 2011, published 2017).
pIC50: −log10 of the molar value.

Experiments:
plasma kallikrein = plasma kallikrein (Homo sapiens, UniProt P03952); settings: from reference (15)
hepsin = hepsin (Homo sapiens, UniProt P05981); settings: literature statement
hepsin, sequence (P05981 whole entry): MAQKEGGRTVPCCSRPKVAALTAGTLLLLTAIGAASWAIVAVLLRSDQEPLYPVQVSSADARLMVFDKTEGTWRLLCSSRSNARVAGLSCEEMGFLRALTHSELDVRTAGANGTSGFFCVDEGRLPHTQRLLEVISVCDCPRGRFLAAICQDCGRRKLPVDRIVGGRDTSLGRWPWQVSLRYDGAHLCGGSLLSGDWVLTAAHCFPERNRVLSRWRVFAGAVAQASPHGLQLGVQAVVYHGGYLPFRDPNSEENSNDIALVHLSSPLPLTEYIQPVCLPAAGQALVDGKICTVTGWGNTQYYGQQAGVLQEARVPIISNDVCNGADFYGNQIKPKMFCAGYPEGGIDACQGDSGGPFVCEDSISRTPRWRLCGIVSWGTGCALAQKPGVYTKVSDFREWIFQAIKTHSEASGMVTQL

plasma kallikrein, sequence (P03952 20-638, species assumed): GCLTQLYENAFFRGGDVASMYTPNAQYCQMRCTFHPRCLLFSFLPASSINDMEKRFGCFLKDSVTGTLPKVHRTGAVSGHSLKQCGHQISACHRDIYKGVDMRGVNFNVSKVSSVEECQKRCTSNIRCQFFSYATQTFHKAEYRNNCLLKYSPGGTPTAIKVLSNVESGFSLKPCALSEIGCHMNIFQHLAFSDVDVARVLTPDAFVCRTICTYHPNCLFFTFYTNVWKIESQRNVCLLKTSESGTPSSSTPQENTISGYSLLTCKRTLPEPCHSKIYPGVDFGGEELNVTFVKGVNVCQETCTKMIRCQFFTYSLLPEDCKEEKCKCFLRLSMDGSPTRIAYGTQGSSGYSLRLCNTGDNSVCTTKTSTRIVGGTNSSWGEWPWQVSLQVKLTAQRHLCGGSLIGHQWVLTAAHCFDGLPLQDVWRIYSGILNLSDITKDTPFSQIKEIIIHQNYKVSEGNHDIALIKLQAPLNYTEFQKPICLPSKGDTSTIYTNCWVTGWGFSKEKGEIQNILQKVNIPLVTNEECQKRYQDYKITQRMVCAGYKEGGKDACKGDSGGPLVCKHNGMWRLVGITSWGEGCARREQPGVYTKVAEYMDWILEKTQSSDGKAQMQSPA

Row | pIC50 (plasma kallikrein) | inhibition of hepsin (hepsin) | SMILES | effective dose by intraperitoneal injection in mice (intraperitoneal injection, reference (5)) [mg/kg] | effective dose orally in mice (oral, in food)
1 | 5.82 | – | CN(C)C(=O)COC(=O)Cc1ccc(OC(=O)c2ccc(NC(=N)N)cc2)cc1.CS(=O)(=O)O [FOY-305] | 20 | 0.1 % of the food
2 | – | inhibits hepsin | CC(C)(Sc1cc(C(C)(C)C)c(O)c(C(C)(C)C)c1)Sc1cc(C(C)(C)C)c(O)c(C(C)(C)C)c1 [Probucol, probucol] | – | –
